Test results reported in patent US11970474B2, “Substituted benzodiazoles and use thereof in therapy” (THOMAS HELLEDAYS STIFTELSE FÖR MEDICINSK FORSKNING, priority 2018, dated 2024).

What follows are molecules tested against OGG1 (Homo sapiens (Human), UniProt O15527) (assay: In vitro OGG1 activity assay). Conditions: 800 pM OGG1 enzyme, 2 nM human APEX1, 10 nM 8-oxoA:C substrate.
Assay type: biochemical
In short: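 Fluorescence-release assay on a duplex oligonucleotide carrying an OGG1 substrate base beside a fluorophore, quenched from the complementary strand. Excess APEX1 cleaves the abasic site left by base excision, melting the duplex and unquenching the fluorophore. Compounds in DMSO were dispensed before enzyme and substrate, and fluorescein signal was read.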

OGG1, sequence (O15527 whole entry): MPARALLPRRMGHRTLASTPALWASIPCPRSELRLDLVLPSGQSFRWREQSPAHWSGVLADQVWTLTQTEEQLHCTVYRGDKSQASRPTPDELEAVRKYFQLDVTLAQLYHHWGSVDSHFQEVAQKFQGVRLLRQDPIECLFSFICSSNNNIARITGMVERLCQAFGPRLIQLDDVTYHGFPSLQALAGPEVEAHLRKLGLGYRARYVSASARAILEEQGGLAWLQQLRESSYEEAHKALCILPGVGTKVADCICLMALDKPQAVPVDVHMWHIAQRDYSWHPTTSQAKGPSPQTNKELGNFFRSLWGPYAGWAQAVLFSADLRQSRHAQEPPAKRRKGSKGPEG

IC50 [nM]	Compound
960	COc1cc(NC(=O)[C@H]2CC[C@@H](n3c(=O)[nH]c4c(N5CCOCC5)cccc43)CC2)ccc1C [Example 241, Cis-N-(3-methoxy-4-methylphenyl)-4-[4-(morpholin-4-yl)-2-oxo-2,3-dihydro-1H-1,3-benzodiazol-1-yl]cyclohexane-1-carboxamide]
126	COc1cc(NC(=O)[C@H]2CC[C@@H](n3c(=O)[nH]c4c(OCC(=O)O)cccc43)CC2)ccc1C [Example 242, 2-({2-Oxo-1-[cis-4-[(3-methoxy-4-methylphenyl)carbamoyl]cyclohexyl]-2,3-dihydro-1H-1,3-benzodiazol-4-yl}oxy)acetic acid]
3630	COCCOc1cccc2c1[nH]c(=O)n2[C@H]1CC[C@@H](C(=O)Nc2ccc3cc[nH]c3c2)CC1 [Example 246, Cis-N-(1H-indol-6-yl)-4-[4-(2-methoxyethoxy)-2-oxo-2,3-dihydro-1H-1,3-benzodiazol-1-yl]cyclohexane-1-carboxamide]
0.62	COc1cc(NC(=O)[C@H]2CC[C@@H](n3c(=O)[nH]c4c(C(=O)NCCN)cccc43)CC2)ccc1C [Example 247, N-(2-Aminoethyl)-2-oxo-1-[cis-4-[(3-methoxy-4-methylphenyl)carbamoyl]cyclohexyl]-2,3-dihydro-1H-1,3-benzodiazole-4-carboxamide]
6.77	COc1cc(NC(=O)[C@H]2CC[C@@H](n3c(=O)[nH]c4c(C(=O)NCC(O)CO)cccc43)CC2)ccc1C (stereo partly drawn) [Example 248, N-(2,3-Dihydroxypropyl)-2-oxo-1-[cis-4-[(3-methoxy-4-methylphenyl)carbamoyl]cyclohexyl]-2,3-dihydro-1H-1,3-benzodiazole-4-carboxamide]
4.25	COc1cc(NC(=O)[C@H]2CC[C@@H](n3c(=O)[nH]c4c(C(=O)NCCNS(C)(=O)=O)cccc43)CC2)ccc1C [Example 251, N-(2-Methanesulfonamidoethyl)-2-oxo-1-[cis-4-[(3-methoxy-4-methylphenyl)carbamoyl]cyclohexyl]-2,3-dihydro-1H-1,3-benzodiazole-4-carboxamide]
3.94	COc1cc(NC(=O)[C@H]2CC[C@@H](n3c(=O)[nH]c4c(C(=O)NCCN5CCNCC5)cccc43)CC2)ccc1C [Example 252, 2-Oxo-N-[2-(piperazin-1-yl)ethyl]-1-[cis-4-[(3-methoxy-4-methylphenyl)carbamoyl]cyclohexyl]-2,3-dihydro-1H-1,3-benzodiazole-4-carboxamide]
6.79	COc1cc(NC(=O)[C@H]2CC[C@@H](n3c(=O)[nH]c4c(C(=O)NCCNC(C)=O)cccc43)CC2)ccc1C [Example 253, Cis-4-{4-[(2-acetamidoethyl)carbamoyl]-2-oxo-2,3-dihydro-1H-1,3-benzodiazol-1-yl}-N-(3-methoxy-4-methylphenyl)cyclohexane-1-carboxamide]
0.21	COc1cc(NC(=O)[C@H]2CC[C@@H](n3c(=O)[nH]c4c(C(=O)NCC5CCCN5)cccc43)CC2)ccc1C (stereo partly drawn) [Example 254, 2-Oxo-N-[(pyrrolidin-2-yl)methyl]-1-[cis-4-[(3-methoxy-4-methylphenyl)carbamoyl]cyclohexyl]-2,3-dihydro-1H-1,3-benzodiazole-4-carboxamide]
30.9	COc1cc(NC(=O)[C@H]2CC[C@@H](n3c(=O)[nH]c4c(NC(=O)CN)cccc43)CC2)ccc1C [Example 255, Cis-4-[4-(2-aminoacetamido)-2-oxo-2,3-dihydro-1H-1,3-benzodiazol-1-yl]-N-(3-methoxy-4-methylphenyl)cyclohexane-1-carboxamide]
2690	COc1cc(NC(=O)[C@H]2CC[C@@H](n3c(=O)[nH]c4cc(CN)ccc43)CC2)ccc1C [Example 256, Cis-4-[5-(aminomethyl)-2-oxo-2,3-dihydro-1H-1,3-benzodiazol-1-yl]-N-(3-methoxy-4-methylphenyl)cyclohexane-1-carboxamide]
3.94	CNC(=O)c1cccc2c1[nH]c(=O)n2[C@H]1CC[C@@H](C(=O)Nc2ccc(C)c(OC)c2)CC1 [Example 259, N-Methyl-2-oxo-1-[cis-4-[(3-methoxy-4-methylphenyl)carbamoyl]cyclohexyl]-2,3-dihydro-1H-1,3-benzodiazole-4-carboxamide]

The remaining lines, values behind:

Compound	IC50 [nM]
COc1cc(NC(=O)N2CCC(n3c(=O)[nH]c4ccccc43)CC2)ccc1C [Example 210, N-(3-Methoxy-4-methylphenyl)-4-(2-oxo-2,3-dihydro-1H-1,3-benzodiazol-1-yl)piperidine-1-carboxamide]	9490
COc1ccc(NC(=O)[C@H]2CC[C@@H](n3c(=O)[nH]c4c(F)cccc43)CC2)cc1 [Example 211, Cis-4-(4-fluoro-2-oxo-2,3-dihydro-1H-1,3-benzodiazol-1-yl)-N-(4-methoxyphenyl)cyclohexane-1-carboxamide]	153
COc1ccc(NC(=O)[C@H]2CC[C@@H](n3c(=O)[nH]c4c(F)cccc43)CC2)cc1F [Example 213, Cis-4-(4-fluoro-2-oxo-2,3-dihydro-1H-1,3-benzodiazol-1-yl)-N-(3-fluoro-4-methoxyphenyl)cyclohexane-1-carboxamide]	155
COc1ncc(NC(=O)[C@H]2CC[C@@H](n3c(=O)[nH]c4c(F)cccc43)CC2)cc1C [Example 214, Cis-4-(4-fluoro-2-oxo-2,3-dihydro-1H-1,3-benzodiazol-1-yl)-N-(6-methoxy-5-methylpyridin-3-yl)cyclohexane-1-carboxamide]	556
O=c1[nH]c2c(F)cccc2n1[C@H]1CC[C@@H](C(=O)Nc2ccc3cc[nH]c3c2)CC1 [Example 215, Cis-4-(4-fluoro-2-oxo-2,3-dihydro-1H-1,3-benzodiazol-1-yl)-N-(1H-indol-6-yl)cyclohexane-1-carboxamide]	580
COc1ccc(NC(=O)[C@H]2CC[C@@H](n3c(=O)[nH]c4ccc(F)cc43)CC2)cc1 [Example 216, Cis-4-(6-fluoro-2-oxo-2,3-dihydro-1H-1,3-benzodiazol-1-yl)-N-(4-methoxyphenyl)cyclohexane-1-carboxamide]	8130
COc1ccc(NC(=O)[C@H]2CC[C@@H](n3c(=O)[nH]c4ccc(F)cc43)CC2)cc1C [Example 217, Cis-4-(6-fluoro-2-oxo-2,3-dihydro-1H-1,3-benzodiazol-1-yl)-N-(4-methoxy-3-methylphenyl)cyclohexane-1-carboxamide]	586
COc1ccc(NC(=O)[C@H]2CC[C@@H](n3c(=O)[nH]c4ccc(F)cc43)CC2)cc1F [Example 218, Cis-4-(6-fluoro-2-oxo-2,3-dihydro-1H-1,3-benzodiazol-1-yl)-N-(3-fluoro-4-methoxyphenyl)cyclohexane-1-carboxamide]	9010
Cc1cc(NC(=O)[C@H]2CC[C@@H](n3c(=O)[nH]c4ccc(F)cc43)CC2)ccc1O [Example 220, Cis-4-(6-fluoro-2-oxo-2,3-dihydro-1H-1,3-benzodiazol-1-yl)-N-(4-hydroxy-3-methylphenyl)cyclohexane-1-carboxamide]	8630
Cc1ccc(NC(=O)[C@H]2CC[C@@H](n3c(=O)[nH]c4c(Br)cccc43)CC2)c(O)c1 [Example 222, Cis-4-(4-bromo-2-oxo-2,3-dihydro-1H-1,3-benzodiazol-1-yl)-N-(2-hydroxy-4-methylphenyl)cyclohexane-1-carboxamide]	350
Cc1cc(N)c(NC(=O)[C@H]2CC[C@@H](n3c(=O)[nH]c4c(Br)cccc43)CC2)cc1C [Example 223, Cis-N-(2-amino-4,5-dimethylphenyl)-4-(4-bromo-2-oxo-2,3-dihydro-1H-1,3-benzodiazol-1-yl)cyclohexane-1-carboxamide]	1670
NC(=O)c1ccc(NC(=O)[C@H]2CC[C@@H](n3c(=O)[nH]c4c(Br)cccc43)CC2)cc1 [Example 224, 4-[cis-4-(4-bromo-2-oxo-2,3-dihydro-1H-1,3-benzodiazol-1-yl)cyclohexaneamido]benzamide]	3660
O=c1[nH]c2c(Br)cccc2n1[C@H]1CC[C@@H](C(=O)Nc2cccc(CO)c2)CC1 [Example 231, Cis-4-(4-bromo-2-oxo-2,3-dihydro-1H-1,3-benzodiazol-1-yl)-N-[3-(hydroxymethyl)phenyl]cyclohexane-1-carboxamide]	8050
COc1cc(NC(=O)[C@H]2CC[C@@H](n3c(=O)[nH]c4ncccc43)CC2)ccc1C [Example 232, Cis-N-(3-methoxy-4-methylphenyl)-4-{2-oxo-1H,2H,3H-imidazo[4,5-b]pyridin-1-yl}cyclohexane-1-carboxamide]	109
COc1ccc(NC(=O)[C@H]2CC[C@@H](n3c(=O)[nH]c4ncccc43)CC2)cc1C [Example 233, Cis-N-(4-methoxy-3-methylphenyl)-4-{2-oxo-1H,2H,3H-imidazo[4,5-b]pyridin-1-yl}cyclohexane-1-carboxamide]	47.6
COc1ccc(NC(=O)[C@H]2CC[C@@H](n3c(=O)[nH]c4ncccc43)CC2)cc1 [Example 234, Cis-N-(4-methoxyphenyl)-4-{2-oxo-1H,2H,3H-imidazo[4,5-b]pyridin-1-yl}cyclohexane-1-carboxamide]	572
COc1ncc(NC(=O)[C@H]2CC[C@@H](n3c(=O)[nH]c4ncccc43)CC2)cc1C [Example 235, Cis-N-(6-methoxy-5-methylpyridin-3-yl)-4-{2-oxo-1H,2H,3H-imidazo[4,5-b]pyridin-1-yl}cyclohexane-1-carboxamide]	1450
COc1cc(NC(=O)[C@H]2CC[C@@H](n3c(=O)[nH]c4cnccc43)CC2)ccc1C [Example 236, Cis-N-(3-methoxy-4-methylphenyl)-4-{2-oxo-1H,2H,3H-imidazo[4,5-c]pyridin-1-yl}cyclohexane-1-carboxamide]	196
COc1cc(NC(=O)[C@H]2CC[C@@H](n3c(=O)[nH]c4c(S(=O)(=O)CC(=O)O)cccc43)CC2)ccc1C [Example 239, 2-({2-Oxo-1-[cis-4-[(3-methoxy-4-methylphenyl)carbamoyl]cyclohexyl]-2,3-dihydro-1H-1,3-benzodiazol-4-yl}sulfonyl)acetic acid]	50.6
